Results reported in PubChem BioAssay AID1259407 (Chemical Carcinogenesis Research Information System (CCRIS), 2018).
The source made the active and inactive calls. No rule for the calls is given here.

Tested on: CCRIS mutagenicity, Ames/micronucleus/aberration tests
Assay: CCRIS mutagenicity studies
[1] = Test System: AMES SALMONELLA TYPHIMURIUM, Strain/Indicator: TA98, Metabolic Activation: NONE, Method: STANDARD PLATE
[2] = Test System: AMES SALMONELLA TYPHIMURIUM, Strain/Indicator: TA100, Metabolic Activation: NONE, Method: STANDARD PLATE
[3] = Test System: AMES SALMONELLA TYPHIMURIUM, Strain/Indicator: TA1535, Metabolic Activation: NONE, Method: STANDARD PLATE
[4] = Test System: AMES SALMONELLA TYPHIMURIUM, Strain/Indicator: TA1537, Metabolic Activation: NONE, Method: STANDARD PLATE
[5] = Test System: AMES SALMONELLA TYPHIMURIUM, Strain/Indicator: TA1538, Metabolic Activation: NONE, Method: STANDARD PLATE

For `O.[Al+3].[Al+3].[Na+].[Na+].[O-2].[O-2].[O-2].[O-2].[O-2].[O-2].[Si+4]`, the mutagenic call (Test System: AMES SALMONELLA TYPHIMURIUM, Strain/Indicator: TA98, Metabolic Activation: HAMSTER, LIVER, S-9, AROCLOR 1254 (10%), Method: PREINCUBATION) was “inactive; negative”, the mutagenic call (Test System: AMES SALMONELLA TYPHIMURIUM, Strain/Indicator: TA98, Metabolic Activation: NONE, Method: PREINCUBATION) was “inactive; negative” and the mutagenic call [1] was “inactive; negative”. For the same compound, the mutagenic call (Test System: AMES SALMONELLA TYPHIMURIUM, Strain/Indicator: TA98, Metabolic Activation: RAT, LIVER, S-9, AROCLOR 1254 (10%), Method: PREINCUBATION) was “inactive; negative”, the mutagenic call (Test System: AMES SALMONELLA TYPHIMURIUM, Strain/Indicator: TA98, Metabolic Activation: RAT, LIVER, S-9, AROCLOR 1254, Method: STANDARD PLATE) was “inactive; negative” and the mutagenic call (Test System: AMES SALMONELLA TYPHIMURIUM, Strain/Indicator: TA100, Metabolic Activation: HAMSTER, LIVER, S-9, AROCLOR 1254 (10%), Method: PREINCUBATION) was “inactive; negative”. For the same compound, the mutagenic call (Test System: AMES SALMONELLA TYPHIMURIUM, Strain/Indicator: TA100, Metabolic Activation: NONE, Method: PREINCUBATION) was “inactive; negative”, the mutagenic call [2] was “inactive; negative” and the mutagenic call (Test System: AMES SALMONELLA TYPHIMURIUM, Strain/Indicator: TA100, Metabolic Activation: RAT, LIVER, S-9, AROCLOR 1254 (10%), Method: PREINCUBATION) was “inactive; negative”. For the same compound, the mutagenic call (Test System: AMES SALMONELLA TYPHIMURIUM, Strain/Indicator: TA100, Metabolic Activation: RAT, LIVER, S-9, AROCLOR 1254, Method: STANDARD PLATE) was “inactive; negative”, the mutagenic call (Test System: AMES SALMONELLA TYPHIMURIUM, Strain/Indicator: TA1535, Metabolic Activation: HAMSTER, LIVER, S-9, AROCLOR 1254 (10%), Method: PREINCUBATION) was “inactive; negative” and the mutagenic call (Test System: AMES SALMONELLA TYPHIMURIUM, Strain/Indicator: TA1535, Metabolic Activation: NONE, Method: PREINCUBATION) was “inactive; negative”. The mutagenic call [3] was “inactive; negative”, the mutagenic call (Test System: AMES SALMONELLA TYPHIMURIUM, Strain/Indicator: TA1535, Metabolic Activation: RAT, LIVER, S-9, AROCLOR 1254 (10%), Method: PREINCUBATION) was “inactive; negative” and the mutagenic call (Test System: AMES SALMONELLA TYPHIMURIUM, Strain/Indicator: TA1535, Metabolic Activation: RAT, LIVER, S-9, AROCLOR 1254, Method: STANDARD PLATE) was “inactive; negative”. For the same compound, the mutagenic call (Test System: AMES SALMONELLA TYPHIMURIUM, Strain/Indicator: TA1537, Metabolic Activation: HAMSTER, LIVER, S-9, AROCLOR 1254 (10%), Method: PREINCUBATION) was “inactive; negative”, the mutagenic call (Test System: AMES SALMONELLA TYPHIMURIUM, Strain/Indicator: TA1537, Metabolic Activation: NONE, Method: PREINCUBATION) was “inactive; negative” and the mutagenic call [4] was “inactive; negative”. The mutagenic call (Test System: AMES SALMONELLA TYPHIMURIUM, Strain/Indicator: TA1537, Metabolic Activation: RAT, LIVER, S-9, AROCLOR 1254 (10%), Method: PREINCUBATION) was “inactive; negative”, the mutagenic call (Test System: AMES SALMONELLA TYPHIMURIUM, Strain/Indicator: TA1537, Metabolic Activation: RAT, LIVER, S-9, AROCLOR 1254, Method: STANDARD PLATE) was “inactive; negative” and the mutagenic call [5] was “inactive; negative”. For the same compound, the mutagenic call (Test System: AMES SALMONELLA TYPHIMURIUM, Strain/Indicator: TA1538, Metabolic Activation: RAT, LIVER, S-9, AROCLOR 1254, Method: STANDARD PLATE) was “inactive; negative”, the mutagenic call (Test System: E. COLI, Strain/Indicator: WP2, Metabolic Activation: NONE, Method: STANDARD PLATE) was “inactive; negative” and the mutagenic call (Test System: E. COLI, Strain/Indicator: WP2, Metabolic Activation: RAT, LIVER, S-9, AROCLOR 1254, Method: STANDARD PLATE) was “inactive; negative”.

With `FC(Cl)C(F)(F)F` (centres undefined) the mutagenic call (Test System: AMES SALMONELLA TYPHIMURIUM, Strain/Indicator: TA97, Metabolic Activation: NONE, Method: VAPOR CHAMBER) was “inactive; negative”, the mutagenic call (Test System: AMES SALMONELLA TYPHIMURIUM, Strain/Indicator: TA97, Metabolic Activation: RAT LIVER S-9, Method: VAPOR CHAMBER) was “inactive; negative” and the mutagenic call (Test System: AMES SALMONELLA TYPHIMURIUM, Strain/Indicator: TA98, Metabolic Activation: NONE, Method: VAPOR CHAMBER) was “inactive; negative”. The mutagenic call (Test System: AMES SALMONELLA TYPHIMURIUM, Strain/Indicator: TA98, Metabolic Activation: RAT LIVER S-9, Method: VAPOR CHAMBER) was “inactive; negative”, the mutagenic call (Test System: AMES SALMONELLA TYPHIMURIUM, Strain/Indicator: TA100, Metabolic Activation: NONE, Method: VAPOR CHAMBER) was “inactive; negative” and the mutagenic call (Test System: AMES SALMONELLA TYPHIMURIUM, Strain/Indicator: TA100, Metabolic Activation: RAT LIVER S-9, Method: VAPOR CHAMBER) was “inactive; negative”. The mutagenic call (Test System: AMES SALMONELLA TYPHIMURIUM, Strain/Indicator: TA1535, Metabolic Activation: NONE, Method: VAPOR CHAMBER) was “inactive; negative” and the mutagenic call (Test System: AMES SALMONELLA TYPHIMURIUM, Strain/Indicator: TA1535, Metabolic Activation: RAT LIVER S-9, Method: VAPOR CHAMBER) was “inactive; negative”.

In the case of `CN(C)CCCNc1c2ccccc2nc2c([N+](=O)[O-])cccc12`, the mutagenic call (Test System: AMES SALMONELLA TYPHIMURIUM, Strain/Indicator: TA98(1,8-DNP6), Metabolic Activation: NONE, Method: STANDARD PLATE) is reported as “active; positive”, the mutagenic call (Test System: AMES SALMONELLA TYPHIMURIUM, Strain/Indicator: TA98(1,8-DNP6), Metabolic Activation: RAT, LIVER, S-9, Method: STANDARD PLATE) is reported as “active; positive” and the mutagenic call (Test System: AMES SALMONELLA TYPHIMURIUM, Strain/Indicator: TA98(NR), Metabolic Activation: NONE, Method: STANDARD PLATE) is reported as “active; positive”. For the same compound, the mutagenic call (Test System: AMES SALMONELLA TYPHIMURIUM, Strain/Indicator: TA98(NR), Metabolic Activation: RAT, LIVER, S-9, Method: STANDARD PLATE) was “active; positive”, the mutagenic call [1] was “active; positive” and the mutagenic call (Test System: AMES SALMONELLA TYPHIMURIUM, Strain/Indicator: TA98, Metabolic Activation: RAT, LIVER, S-9, Method: STANDARD PLATE) was “active; positive”. The mutagenic call [2] was “active; positive”, the mutagenic call [3] was “inactive; negative” and the mutagenic call [4] was “active; positive”. The mutagenic call (Test System: AMES SALMONELLA TYPHIMURIUM, Strain/Indicator: TA1537 PKM101, Metabolic Activation: NONE, Method: STANDARD PLATE) was “active; positive”, the mutagenic call [5] was “active; positive” and the mutagenic call (Test System: CHINESE HAMSTER V-79, Strain/Indicator: V-79/6-THIOGUANINE, Metabolic Activation: NONE, Method: STANDARD PLATE) was “active; positive”. For the same compound, the mutagenic call (Test System: CHINESE HAMSTER V-79, Strain/Indicator: V-79/OUABAIN, Metabolic Activation: NONE, Method: STANDARD PLATE) was “inactive; negative”, the mutagenic call (Test System: Escherichia coli, Strain/Indicator: CC107 (G6 to G7 frameshifts), Metabolic Activation: None, Method: Modified preincubation) was “active; positive” and the mutagenic call (Test System: Escherichia coli, Strain/Indicator: CC108 (G6 to G5 frameshifts), Metabolic Activation: None, Method: Modified preincubation) was “active; positive”. For the same compound, the mutagenic call (Test System: Escherichia coli, Strain/Indicator: CC109 (CG5 to CG4 frameshifts), Metabolic Activation: None, Method: Modified preincubation) was “inactive; negative, investigators report as positive based on revertant frequency correcte” and the mutagenic call (Test System: Escherichia coli, Strain/Indicator: CC111 (A7 to A6 frameshifts), Metabolic Activation: None, Method: Modified preincubation) was “inactive; negative”.
